ChEMBL document CHEMBL4138214, “Urokinase receptor derived peptides as potent inhibitors of the formyl peptide receptor type 1-triggered cell migration” (Eur J Med Chem, 2018)
Activity calls are given as the source filed them. The rule behind the calls is not given here. Square brackets hold non-standard residues; d marks the D form. Peptide text beside a SMILES is read from it. 1Nal = N[C@@H](Cc1cccc2ccccc12)C(=O)O; 2Nal = N[C@@H](Cc1ccc2ccccc2c1)C(=O)O; pS = N[C@@H](COP(=O)(O)O)C(=O)O

Tests used:
Type in all cases: cell-based
RBL-2H3 = assay: Induction of cell migration in rat RBL2H3 cells at 10 nM after 6 hrs by RTCA; conditions: rbl-2h3, 6 h, 0.01 µM
[1] = Induction of cell migration in rat RBL2H3/ETFR cells stably expressing FPR1 at 10 nM after 6 hrs by RTCA; conditions: 0.01 µM
Rattus norvegicus [2] = species: Rattus norvegicus; assay: Antagonist activity at FPR1 in rat RBL-2H3/ETFR cells assessed as inhibition of fMLF-induced cell migration at 10 nM after 6 hrs by RTCA relative to fMLF
Rattus norvegicus [3] = species: Rattus norvegicus; assay: Inhibition of FITC-fMLF induced FPR1 internalization in rat RBL-2H3/ETFR cells at 10 uM preincubated for 30 mins followed by agonist addition measured after 30 mins by fluorescence assay
[4] = (§1) Antagonist activity at FPR1 in rat RBL-2H3/ETFR cells assessed as inhibition of fMLF-induced cell migration after 4 hrs by RTCA relative to fMLF
Rattus norvegicus [5] = species: Rattus norvegicus; assay: as §1
Rattus norvegicus [6] = species: Rattus norvegicus; assay: Inhibition of FITC-fMLF induced FPR1 internalization in rat RBL-2H3/ETFR cells at 10 uM preincubated for 30 mins followed by agonist addition measured after 30 mins by confocal fluorescent microscopy
[7] = Rattus norvegicus, RBL-2H3, 4 h, read-out: IC50

| Compound | Activity (RBL-2H3) | Activity [1] | inhibition (Rattus norvegicus [2]) | inhibition (Rattus norvegicus [3]) | IC50 [4, 7] | inhibition (Rattus norvegicus [5]) | inhibition (Rattus norvegicus [6]) | IC50 [4] |
| --- | --- | --- | --- | --- | --- | --- | --- | --- |
| N=C(N)NCCC[C@@H]1NC(=O)[C@H](CCC(=O)O)NC(=O)[C@H](CCCNC(=N)N)NC(=O)[C@H](Cc2ccc3ccccc3c2)NC(=O)[C@H](CO)NC1=O (cyclo([2Nal]RERS)) | Non-Toxic | Non-Toxic | 23% | Active | – | – | – | – |
| N=C(N)NCCC[C@@H]1NC(=O)[C@H](COP(=O)(O)O)NC(=O)[C@H](CCCNC(=N)N)NC(=O)[C@H](Cc2ccc(O)cc2)NC(=O)[C@H](CO)NC1=O (cyclo(RSYR[pS])) | Non-Toxic | Non-Toxic | 36% | – | – | – | – | – |
| N=C(N)NCCC[C@@H]1NC(=O)[C@H](CO)NC(=O)[C@H](CCCNC(=N)N)NC(=O)[C@H](Cc2ccc(O)cc2)NC(=O)[C@H](COP(=O)(O)O)NC1=O (cyclo(RSR[pS]Y)) | Non-Toxic | Non-Toxic | 31% | – | – | – | – | – |
| N=C(N)NCCC[C@@H]1NC(=O)[C@H](CO)NC(=O)[C@H](CCCNC(=N)N)NC(=O)[C@H](Cc2ccc(O)cc2)NC(=O)[C@H](CCC(=O)O)NC1=O (cyclo(EYRSR)) | Non-Toxic | Non-Toxic | 34% | – | – | – | – | – |
| N=C(N)NCCC[C@@H]1NC(=O)[C@H](CCC(=O)O)NC(=O)[C@H](CCCNC(=N)N)NC(=O)[C@H](Cc2ccc(O)cc2)NC(=O)[C@H](CO)NC1=O (cyclo(ERSYR)) | Non-Toxic | Non-Toxic | 49% | 55% | – | – | – | – |
| N=C(N)NCCC[C@@H]1NC(=O)[C@H](CO)NC(=O)[C@H](CCCNC(=N)N)NC(=O)[C@H](Cc2ccc(O)cc2)NC(=O)[C@H](CO)NC1=O (cyclo(RSRSY)) | Non-Toxic | Non-Toxic | 75% | Active | 0.1 pM | Dose-dependent effect | Active | – |
| N=C(N)NCCC[C@@H]1NC(=O)[C@H](CO)NC(=O)[C@H](CO)NC(=O)[C@H](Cc2ccc(O)cc2)NC(=O)[C@H](CCCNC(=N)N)NC1=O (cyclo(RRYSS)) | Non-Toxic | Non-Toxic | 0% | inactive | – | – | inactive | – |
| N=C(N)NCCC[C@H](NC(=O)[C@H](Cc1ccc(O)cc1)NC(=O)[C@H](COP(=O)(O)O)NC(=O)[C@H](CO)NC(=O)[C@@H](N)CCCNC(=N)N)C(N)=O (H-RS[pS]YR-NH2) | Non-Toxic | Non-Toxic | 0% | inactive | – | – | inactive | – |
| N=C(N)NCCC[C@H](NC(=O)[C@H](COP(=O)(O)O)NC(=O)[C@H](CCCNC(=N)N)NC(=O)[C@@H](N)CO)C(=O)N[C@@H](Cc1ccc(O)cc1)C(N)=O (H-SR[pS]RY-NH2) | Non-Toxic | Non-Toxic | 67% | 67% | 0.1 pM | – | Active | Dose-dependent effect |
| N=C(N)NCCC[C@@H]1NC(=O)[C@H](CCC(=O)O)NC(=O)[C@H](CCCNC(=N)N)NC(=O)[C@H](Cc2c[nH]c3ccccc23)NC(=O)[C@H](CO)NC1=O (cyclo(ERSWR)) | Non-Toxic | Non-Toxic | 0% | inactive | – | – | – | – |
| N=C(N)NCCC[C@@H]1NC(=O)[C@H](CCC(=O)O)NC(=O)[C@H](CCCNC(=N)N)NC(=O)[C@H](Cc2ccc(O)cc2)NC(=O)[C@H](CCC(=O)O)NC1=O (cyclo(EREYR)) | Non-Toxic | Non-Toxic | 61% | 61% | – | – | – | – |
| CSCC[C@H](NC=O)C(=O)N[C@@H](CC(C)C)C(=O)N[C@@H](Cc1ccccc1)C(=O)O [N-FORMYLMETHIONYL-LEUCYLPHENYLALANINE] | – | Toxic | – | Active | – | – | Active | – |
| N=C(N)NCCC[C@H](NC(=O)[C@H](CO)NC(=O)[C@H](CCCNC(=N)N)NC(=O)[C@@H](N)COP(=O)(O)O)C(=O)N[C@@H](Cc1ccc(O)cc1)C(N)=O (H-[pS]RSRY-NH2) | Non-Toxic | Non-Toxic | 58% | – | – | – | – | – |
| H-SRSRY-NH2 | – | – | – | Active | – | – | – | – |
| N=C(N)NCCC[C@@H]1NC(=O)[C@H](CCC(=O)O)NC(=O)[C@H](CCCNC(=N)N)NC(=O)[C@H](Cc2cccc3ccccc23)NC(=O)[C@H](CO)NC1=O (cyclo([1Nal]RERS)) | Non-Toxic | Non-Toxic | 43% | 62% | – | – | – | – |
| N=C(N)NCCC[C@@H]1NC(=O)[C@H](CCC(=O)O)NC(=O)[C@H](CCCNC(=N)N)NC(=O)[C@H](Cc2ccccc2)NC(=O)[C@H](CO)NC1=O (cyclo(ERSFR)) | Non-Toxic | Non-Toxic | 20% | Active | – | – | – | – |
